Laboratory results from paper PMC7659582 (Cell Reports Medicine, 2020).

What was measured:
[1] = Incidence of cardiac dysrhythmia in Truven Health MarketScan claims data; assay type: in vivo, human; settings: for CD incidence / Incidence Rate per 1,000 Years: Table 2, MarketScan 2009-2014; for CD incidence: cardiac dysrhythmia cases; for Incidence Rate per 1,000 Years: cardiac dysrhythmia; for Delta from Background Rate: in vivo
[2] = cited from earlier work; for CredibleMeds Classification: Table 1, as of last access May 22, 2018; for CredibleMeds: Table 2
[3] = Table 1; cited from earlier work
[4] = FAERS disproportionality analysis; settings: for EB05 TdP / EB05 VA / EB05 VT: FAERS Nov 1997 to March 31, 2015, EB05 > 2 = signal; for EB05 TdP: torsades de pointes; for EB05 VA: ventricular arrhythmia; for EB05 VT: ventricular tachycardia; for EB05: Table 2, values correspond to EB05 TdP of Table 1
hERG = hERG (Homo sapiens, UniProt Q12809)
Chain of hERG (Q12809 whole entry): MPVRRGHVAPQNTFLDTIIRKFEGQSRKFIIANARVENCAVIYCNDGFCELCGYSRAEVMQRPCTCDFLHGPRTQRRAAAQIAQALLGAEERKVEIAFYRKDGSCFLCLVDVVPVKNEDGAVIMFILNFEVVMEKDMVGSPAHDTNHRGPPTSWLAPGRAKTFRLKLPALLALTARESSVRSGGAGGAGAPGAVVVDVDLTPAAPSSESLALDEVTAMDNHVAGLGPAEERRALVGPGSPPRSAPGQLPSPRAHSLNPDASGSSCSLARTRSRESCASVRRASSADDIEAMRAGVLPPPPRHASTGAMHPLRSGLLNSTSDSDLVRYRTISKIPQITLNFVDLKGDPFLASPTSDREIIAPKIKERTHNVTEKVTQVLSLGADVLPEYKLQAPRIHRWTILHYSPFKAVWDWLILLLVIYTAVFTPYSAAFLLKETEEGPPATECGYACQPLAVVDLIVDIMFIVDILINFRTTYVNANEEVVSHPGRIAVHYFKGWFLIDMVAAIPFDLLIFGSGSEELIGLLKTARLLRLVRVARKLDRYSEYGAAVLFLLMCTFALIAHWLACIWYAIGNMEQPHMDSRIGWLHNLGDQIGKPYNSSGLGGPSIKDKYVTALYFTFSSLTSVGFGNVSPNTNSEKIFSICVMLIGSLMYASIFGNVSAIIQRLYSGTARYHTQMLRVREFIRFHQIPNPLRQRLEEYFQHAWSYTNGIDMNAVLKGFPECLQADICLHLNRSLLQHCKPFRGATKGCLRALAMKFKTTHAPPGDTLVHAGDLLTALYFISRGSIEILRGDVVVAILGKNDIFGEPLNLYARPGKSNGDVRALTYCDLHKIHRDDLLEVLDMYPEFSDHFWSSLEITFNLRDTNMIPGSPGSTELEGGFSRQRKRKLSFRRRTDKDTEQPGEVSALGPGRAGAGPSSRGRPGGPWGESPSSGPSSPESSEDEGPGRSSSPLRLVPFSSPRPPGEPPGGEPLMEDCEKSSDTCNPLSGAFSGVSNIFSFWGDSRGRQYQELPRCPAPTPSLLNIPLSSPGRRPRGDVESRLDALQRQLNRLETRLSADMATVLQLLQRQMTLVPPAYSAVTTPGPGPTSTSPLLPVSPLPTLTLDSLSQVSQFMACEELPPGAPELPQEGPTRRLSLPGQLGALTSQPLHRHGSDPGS

Structure (SMILES) | CD incidence [1] | Incidence Rate per 1,000 Years [1] | Delta from Background Rate [1] | CredibleMeds Classification [2] | CredibleMeds [2] | CiPA Classification [3] | EB05 TdP [4] | EB05 VA [4] | EB05 VT [4] | EB05 [4] | hERG IC50/Free Cmax Ratio (hERG) | rate of CD incidence, each patient subgroup ([1]; compared with the aggregated value, subgroups by age, gender, comorbidity index)
Cc1nc2n(c(=O)c1CCN1CCC(c3noc4cc(F)ccc34)CC1)CCCC2 [RISPERIDONE] | 4,066 | 18.47 per 1,000 Years | −4.53 | possible risk of TdP | possible risk of TdP | intermediate | 1.257 | 0.543 | 0.706 | 1.26 |  | 
CC(C)NCC(O)c1ccc(NS(C)(=O)=O)cc1 (racemic) [DL-SOTALOL] | 13,186 | 124.65 per 1,000 Years | 101.65 |  |  |  | 70.355 | 14.276 | 18.029 | 70.36 |  | 
COc1cc2c(Nc3ccc(Br)cc3F)ncnc2cc1OCC1CCN(C)CC1 [VANDETANIB] |  |  |  | risk of TdP |  | high | 0.546 |  |  |  |  | 
CC(C)(C)c1ccc(C(O)CCCN2CCC(C(O)(c3ccccc3)c3ccccc3)CC2)cc1 (centres unmarked) [TERFENADINE] |  |  |  | risk of TdP |  | intermediate | 24.417 | 3.085 | 9.397 |  |  | 
CCCCc1oc2ccccc2c1C(=O)c1cc(I)c(OCCN(CC)CC)c(I)c1 [AMIODARONE] | 21,788 | 162.2 per 1,000 Years | 139.2 |  | risk of TdP |  |  |  |  | 21.35 |  | 
COc1ccc([C@@H]2Sc3ccccc3N(CCN(C)C)C(=O)[C@@H]2OC(C)=O)cc1 [DILTIAZEM] |  |  |  |  |  |  | 2.62 | 0.925 | 1.443 |  |  | 
CN1CCN(CCCCN2C(=O)CN(/N=C/c3ccc(-c4ccc(Cl)cc4)o3)C2=O)CC1 [AZIMILIDE] |  |  |  |  |  | high | 94.351 |  | 1.381 |  | 11.50 | 
COCCc1ccc(OCC(O)CNC(C)C)cc1 (centres unmarked) [METOPROLOL] |  |  |  |  |  |  | 3.176 | 1.955 | 3.318 |  |  | 
CCCNCC(O)COc1ccccc1C(=O)CCc1ccccc1 (centres unmarked) [PROPAFENONE] | 6,643 | 135.17 per 1,000 Years | 112.17 |  |  |  |  |  |  | 3.38 |  | 
CC/C(=C(\c1ccccc1)c1ccc(OCCN(C)C)cc1)c1ccccc1 [TAMOXIFEN] |  |  |  |  |  |  | 0.077 | 0.06 | 0.172 |  |  | 
CC[C@H]1OC(=O)[C@H](C)[C@@H](O[C@H]2C[C@@](C)(OC)[C@@H](O)[C@H](C)O2)[C@H](C)[C@@H](O[C@@H]2O[C@H](C)C[C@H](N(C)C)[C@H]2O)[C@](C)(OC)C[C@@H](C)C(=O)[C@H](C)[C@@H](O)[C@]1(C)O [CLARITHROMYCIN] |  |  |  | risk of TdP |  | intermediate | 7.69 | 1.898 | 3.016 |  | 77.41 | 
Cc1cccc(C)c1OCC(C)N (centres unmarked) [MEXILETINE] | 1,250 | 280.45 per 1,000 Years | 257.45 |  |  | very low |  |  |  | 2.65 | 130.11 | 
O=C(NCC1CCCCN1)c1cc(OCC(F)(F)F)ccc1OCC(F)(F)F (centres unmarked) [FLECAINIDE] |  |  |  |  |  |  |  | 4.123 | 20.567 |  |  | > 23.0
CCC(=O)C(CC(C)N(C)C)(c1ccccc1)c1ccccc1 (centres unmarked) [METHADONE] | 1,662 | 19.73 per 1,000 Years | −3.27 |  | risk of TdP |  | 36.408 | 1.87 | 3.998 | 36.41 |  | 
O=C(CCCN1CC=C(n2c(=O)[nH]c3ccccc32)CC1)c1ccc(F)cc1 [DROPERIDOL] |  |  |  | risk of TdP |  | intermediate | 19.454 | 2.899 | 4.564 |  |  | 
CN(CCOc1ccc(NS(C)(=O)=O)cc1)CCc1ccc(NS(C)(=O)=O)cc1 [DOFETILIDE] | 2,749 | 157.58 per 1,000 Years | 134.58 |  | risk of TdP |  | 20.983 | 6.235 |  | 20.98 |  | 
CCOC(=O)N1CCC(=C2c3ccc(Cl)cc3CCc3cccnc32)CC1 [LORATADINE] | 2,016 | 13.07 per 1,000 Years | −9.93 |  |  | very low | 4.873 | 0.583 | 3.043 | 4.87 |  | 

Structure (SMILES) | CD incidence [1] | Incidence Rate per 1,000 Years [1] | Delta from Background Rate [1] | CredibleMeds Classification [2] | CredibleMeds [2] | CiPA Classification [3] | EB05 TdP [4] | EB05 VA [4] | EB05 VT [4] | EB05 [4] | hERG IC50/Free Cmax Ratio (hERG) | rate of CD incidence, each patient subgroup ([1]; compared with the aggregated value, subgroups by age, gender, comorbidity index)
COc1cc(N)c(Cl)cc1C(=O)NC1CCN(CCCOc2ccc(F)cc2)CC1OC (centres unmarked) [CISAPRIDE] |  |  |  | risk of TdP |  | intermediate | 30.654 | 5.117 | 21.801 |  |  | 
O=c1[nH]c2ccccc2n1C1CCN(CCCC(c2ccc(F)cc2)c2ccc(F)cc2)CC1 [PIMOZIDE] |  |  |  | risk of TdP |  | intermediate | 17.093 | 0.25 | 2.332 |  |  | 
C=C[C@H]1C[N@@]2CC[C@H]1C[C@@H]2[C@@H](O)c1ccnc2ccc(OC)cc12 [QUINIDINE] | 421 | 87.75 per 1,000 Years | 64.75 |  | risk of TdP |  | 35.667 | 2.768 | 12.296 | 35.67 |  | 
COc1ccc(CCN(C)CCCC(C#N)(c2ccc(OC)c(OC)c2)C(C)C)cc1OC (centres unmarked) |  |  |  |  |  |  | 3.426 | 2.104 | 2.381 |  |  | 
CN(C)CC(c1ccc(O)cc1)C1(O)CCCCC1 (centres unmarked) [DESVENLAFAXINE] | 2,222 | 8.26 per 1,000 Years | −14.74 |  |  |  |  |  |  | 0.13 |  | 
CC(C)COCC(CN(Cc1ccccc1)c1ccccc1)N1CCCC1 (centres unmarked) [BEPRIDIL] |  |  |  | risk of TdP |  | high | 81.663 | 5.155 | 38.276 |  |  | 
CN1CCN(C2=Nc3cc(Cl)ccc3Nc3ccccc32)CC1 [CLOZAPINE] |  |  |  |  |  |  | 0.191 | 0.372 | 0.291 |  |  | 
O=c1[nH]c2ccccc2n1CCCN1CCC(n2c(=O)[nH]c3cc(Cl)ccc32)CC1 [DOMPERIDONE] |  |  |  |  |  |  | 18.85 | 1.455 | 1.468 |  |  | 
COC(=O)C1=C(C)NC(C)=C(C(=O)OC)C1c1ccccc1[N+](=O)[O-] [NIFEDIPINE] |  |  |  |  |  |  |  |  | 0.42 |  |  | 
COc1ccc(CCN2CCC(Nc3nc4ccccc4n3Cc3ccc(F)cc3)CC2)cc1 [ASTEMIZOLE] |  |  |  | risk of TdP |  | intermediate | 18.549 | 1.965 | 15.499 |  |  | 
Cc1nc2n(c(=O)c1CCN1CCC(c3noc4cc(F)ccc34)CC1)CCCC2O (centres unmarked) [PALIPERIDONE] | 119 | 10.13 per 1,000 Years | −12.87 |  | possible risk of TdP |  |  |  |  | 0.57 |  | 
CN(C)CCCN1c2ccccc2Sc2ccc(Cl)cc21 [CHLORPROMAZINE] |  |  |  | risk of TdP |  | intermediate | 5.483 | 0.679 | 1.78 |  |  | 
CCCCCCCN(CC)CCCC(O)c1ccc(NS(C)(=O)=O)cc1 (centres unmarked) [IBUTILIDE] |  |  |  | risk of TdP |  | high | 218.45 | 2.901 | 101.022 |  |  | 
COc1ccccc1OCC(O)CN1CCN(CC(=O)Nc2c(C)cccc2C)CC1 (centres unmarked) [RANOLAZINE] |  |  |  | conditional risk of TdP |  | very low | 22.444 | 0.205 | 4.375 |  |  | 
Cc1nccn1CC1CCc2c(c3ccccc3n2C)C1=O (centres unmarked) [ONDANSETRON] |  |  |  | risk of TdP |  | intermediate | 15.333 | 1.281 | 6.395 |  |  | 
CCOC(=O)C1=C(C)NC(C)=C(C(=O)OC)C1c1cccc([N+](=O)[O-])c1 (centres unmarked) [NITRENDIPINE] |  |  |  |  |  | very low | 0.618 |  | 0.228 |  | 50345 | 
